Source: US8492105B2, “Screening method for an insulin resistance improving agent or a therapeutic agent for diabetes” (Fujitsu Limited, priority 2009, dated 2013)

Legend:
[1] = target: T1, phosphorylation of Ser727 of STAT3 by ERK2 (Homo sapiens, UniProt P28482); experiment: Phosphorylation inhibitory activity test by western blotting (anti-pS727 STAT); format: biochemical; details: 1 mM 5-iodotubercidin (final 1.14 mM), 22% DMSO (Sample 3); 30° C. 130 min; vs control Sample 1
T1 construct: purchased Biosource Inc. (Active ERK); Abcam Inc. (STAT3)
T1 sequence (P28482 whole entry): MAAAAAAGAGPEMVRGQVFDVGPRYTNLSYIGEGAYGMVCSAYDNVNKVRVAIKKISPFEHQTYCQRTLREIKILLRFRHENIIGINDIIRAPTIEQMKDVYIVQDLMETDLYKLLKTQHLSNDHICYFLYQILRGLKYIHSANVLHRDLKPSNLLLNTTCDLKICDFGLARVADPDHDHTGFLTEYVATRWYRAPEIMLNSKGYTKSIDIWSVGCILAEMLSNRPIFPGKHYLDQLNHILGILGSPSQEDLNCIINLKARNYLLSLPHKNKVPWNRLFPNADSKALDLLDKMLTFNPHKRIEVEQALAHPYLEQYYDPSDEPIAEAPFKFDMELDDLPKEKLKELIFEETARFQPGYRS
Experimental: The following ingredients were used at a composition indicated in Table 1 to prepare a reaction liquid: 5× reaction buffer (250 mM tris-HCl (pH 7.5), 50 mM magnesium chloride, 0.1% by mass bovine serum albumin (BSA) and 5 mM dithiothreitol (DTT)), Active ERK solution (0.1 mg/mL) (product of Biosource Inc.), STAT3 solution (0.2 mg/mL) (product of Abcam Inc.) and distilled water.
Also, 5-iodotubercidin (product of Calbiochem Inc.) was used as a control compound.
The 5-iodotubercidin was suspended in DMSO so that the final concentration thereof was adjusted to 5 mM.
Furthermore, distilled water was added to the samples so as to appropriately adjust the volume thereof, whereby reaction mixtures were obtained.
Each of the reaction mixtures was incubated at 30° C. for 130 min to allow Active ERK2 to phosphorylate the Ser727 of the STAT3.
After that, to terminate the phosphorylation, 0.5M ethylenediamine tetraacetate (EDTA) was added in an amount of 2.75 μL to the reaction mixtures serving as a control (Table 2: Sample 1 or 2), and was added in an amount of 5.5 μL to the reaction mixture containing the 5-iodotubercidin (Table 2: Sample 3) or the reaction mixture containing the peptide (Table 2: Sample 4). […]

db/db mice = experiment: Efficacy test, 28-day daily intraperitoneal injection (blood glucose, insulin, HOMA-IR); format: in vivo, mouse
Experimental: Fifty mice described in Test Example 2 were used as a test animal.
Specifically, 3.8 mg of the above peptide was dissolved in 4.75 mL of physiological saline to prepare a 0.8 mg/mL peptide solution (hereinafter may be referred to as “peptide solution 2”). Then, 1.75 mL of the peptide solution 2 was dissolved in 3.5 mL of physiological saline to prepare a 0.27 mg/mL peptide solution (hereinafter may be referred to as “peptide solution 3”). Further, 1 mL of the peptide solution 3 was dissolved in 2 mL of physiological saline to prepare a 0.09 mg/mL peptide solution (hereinafter may be referred to as “peptide solution 4”).
A metformin solution used for an activity control group was prepared as follows. Specifically, 120 mg of metformin (product of Sigma Co.) was dissolved in 4 mL of physiological saline to prepare a 30 mg/mL metformin solution.
The efficacy test was conducted using the following five administration groups: a solvent (physiological saline) control administration group, a 150 mg/kg metformin administration group (serving as an activity control group), a 4.00 mg/kg peptide (expressed by SEQ ID No. 1) administration group, a 1.33 mg/kg peptide administration group and a 0.44 mg/kg peptide administration group. Each administration group had 10 mice.
The above-prepared solutions were intraperitoneally injected every day to all of the mice of the test groups at the corresponding doses given in the following Table 4 for 28 days. The body weight, the fasting blood glucose level, the postprandial blood glucose level and the fasting blood insulin level were measured by the below-described measuring method according to the measurement schedule given in the following Table 5.
The calculating method for the HOMA-IR value is described below.
To measure the fasting blood glucose level and blood insulin level, 50 μL of blood was sampled from the postorbital region on Day 0, Day 14 and Day 28 after administration. The serum was obtained in the same manner as in Test Example 2.
The postprandial blood glucose level was measured using blood sampled from the tail vein on Day 1, Day 13, and Day 27 after administration.
The blood glucose level and blood insulin level were measured in the same manner as in Test Example 2.
The insulin resistance was determined by the HOMA (homeostasis model assessment) method using the following calculation formula. HOMA-IR (index of insulin resistance)=fasting insulin level (μU/mL)×fasting blood glucose level (mmol/L)/22.5
All of the values are indicated as “average value±average error.” The important differences between the groups and within each group were evaluated through one-way variance analysis and Dunnett's multiple comparison. The p-values equal to or lower than 0.05 were regarded as statistically significant.

[2] = Metformin 150 mg/kg group, Day 0
[3] = Metformin 150 mg/kg intraperitoneal every day, Day 28
[4] = Metformin 150 mg/kg intraperitoneal every day, Day 28 minus Day 0

Molecule | band of STAT3 whose Ser727 has been phosphorylated (western blotting) [1] | Fasting blood insulin level (db/db mice; [2]) [ng/mL] | HOMA-IR value (db/db mice; [2]) | Fasting blood glucose level (db/db mice; Metformin 150 mg/kg group, Day 0, average ± average error, 10 mice) [mM] | Postprandial blood glucose level (db/db mice; Metformin 150 mg/kg group, Day 1, average ± average error, 10 mice) [mM] | Postprandial blood glucose level (db/db mice; Metformin 150 mg/kg intraperitoneal every day, Day 13) [mM] | Fasting blood glucose level (db/db mice; Metformin 150 mg/kg intraperitoneal every day, Day 14) [mM] | Postprandial blood glucose level (db/db mice; Metformin 150 mg/kg intraperitoneal every day, Day 27) [mM] | Fasting blood glucose level (db/db mice; [3]) [mM] | Fasting blood insulin level (db/db mice; [3]) [ng/mL] | HOMA-IR value (db/db mice; Metformin 150 mg/kg intraperitoneal every day, Day 28, # p < 0.05 vs. solvent control group) | Increment in fasting blood glucose level (db/db mice; [4]) [mM] | Increment in fasting blood insulin level (db/db mice; [4]) [ng/mL] | Increment in fasting blood glucose level (db/db mice; Metformin 150 mg/kg intraperitoneal every day, Day 28 minus Day 0, listed as metformin) [mM] | Increment in postprandial blood glucose level (db/db mice; Metformin 150 mg/kg intraperitoneal every day, Day 28 minus Day 0 as printed, # p < 0.05 vs. solvent control group) | suppression of increase in fasting blood glucose level (significance) (db/db mice; Metformin 150 mg/kg, Day 0 to Day 28, vs solvent control group) | HOMA-IR value (index of insulin resistance), change (db/db mice; Metformin 150 mg/kg, Day 28)
5-iodotubercidin | lower in intensity than the band detected in the control | – | – | – | – | – | – | – | – | – | – | – | – | – | – | – | –
CN(C)C(=N)N=C(N)N [Metformin, metformin] | – | 8.81 ± 1.33 | 139.4 ± 22.7 | 16.3 ± 1.3 | 22.5 ± 2.0 | 25.2 ± 2.0 | 19.3 ± 1.5 | 28.1 ± 1.6 | 22.0 ± 3.1 | 4.06 ± 0.84 | 79.6 ± 17.7^# | 5.8 ± 2.4 | -4.94 ± 1.77 | 5.8 ± 2.4 | 4.3 ± 2.2^# mM | not statistically significant | significantly decreased
